Assay results reported in ChEMBL document CHEMBL4507274 (2021).

What was measured:
[1] = target: Eukaryotic translation initiation factor 2-alpha kinase 1 (Homo sapiens) (UniProt Q9BQI3); conditions: Compound concentration 100.0 nM
[2] = target: Platelet-derived growth factor receptor beta (Homo sapiens) (UniProt P09619); conditions: Compound concentration 100.0 nM
[3] = target: Serine/threonine-protein kinase MRCK beta (Homo sapiens) (UniProt Q9Y5S2); conditions: Compound concentration 100.0 nM
[4] = tested on: Receptor-type tyrosine-protein kinase FLT3 (Homo sapiens), P36888 [R834Q]; conditions: Compound concentration 100.0 nM
[5] = target: Rhodopsin kinase GRK7 (Homo sapiens) (UniProt Q8WTQ7); conditions: Compound concentration 100.0 nM
[6] = target: TRAF2 and NCK-interacting protein kinase (Homo sapiens) (UniProt Q9UKE5); conditions: Compound concentration 100.0 nM
[7] = target: Serine/threonine-protein kinase 10 (Homo sapiens) (UniProt O94804); conditions: Compound concentration 100.0 nM
[8] = target: Serine/threonine-protein kinase Nek9 (Homo sapiens) (UniProt Q8TD19); conditions: Compound concentration 100.0 nM
[9] = target: Ephrin type-B receptor 1 (Homo sapiens) (UniProt P54762); conditions: Compound concentration 100.0 nM
[10] = target: MAP kinase-interacting serine/threonine-protein kinase 1 (Homo sapiens) (UniProt Q9BUB5); conditions: Compound concentration 100.0 nM
[11] = target: Muscarinic acetylcholine receptor M3 (Homo sapiens) (UniProt P20309); conditions: Compound concentration 10.0 uM
[12] = target: Casein kinase I isoform gamma-3 (Homo sapiens) (UniProt Q9Y6M4); conditions: Compound concentration 100.0 nM
[13] = target: Mitogen-activated protein kinase 15 (Homo sapiens) (UniProt Q8TD08); conditions: Compound concentration 100.0 nM
[14] = tested on: Mast/stem cell growth factor receptor Kit (Homo sapiens), P10721 [V559D,T670I]; conditions: Compound concentration 100.0 nM
[15] = target: Serine/threonine-protein kinase Nek11 (Homo sapiens) (UniProt Q8NG66); conditions: Compound concentration 100.0 nM
[16] = target: Cyclin-dependent kinase 11B (Homo sapiens) (UniProt P21127); conditions: Compound concentration 100.0 nM
[17] = target: Cyclin-dependent kinase-like 1 (Homo sapiens) (UniProt Q00532); conditions: Compound concentration 100.0 nM
[18] = target: Tyrosine-protein kinase receptor Tie-1 (Homo sapiens) (UniProt P35590); conditions: Compound concentration 100.0 nM
[19] = target: Ankyrin repeat and protein kinase domain-containing protein 1 (Homo sapiens) (UniProt Q8NFD2); conditions: Compound concentration 100.0 nM
[20] = target: Phosphatidylinositol 4,5-bisphosphate 3-kinase catalytic subunit gamma isoform (Homo sapiens) (UniProt P48736); conditions: Compound concentration 100.0 nM
[21] = target: Serine/threonine-protein kinase 32A (Homo sapiens) (UniProt Q8WU08); conditions: Compound concentration 100.0 nM
[22] = target: Mitogen-activated protein kinase kinase kinase kinase 4 (Homo sapiens) (UniProt O95819); conditions: Compound concentration 100.0 nM
[23] = target: Rho-associated protein kinase 1 (Homo sapiens) (UniProt Q13464); conditions: Compound concentration 100.0 nM
[24] = target: D(2) dopamine receptor (Homo sapiens) (UniProt P14416); conditions: Compound concentration 10.0 uM
[25] = target: Rhodopsin kinase GRK1 (Homo sapiens) (UniProt Q15835); conditions: Compound concentration 100.0 nM
[26] = target: Interferon-induced, double-stranded RNA-activated protein kinase (Homo sapiens) (UniProt P19525); conditions: Compound concentration 100.0 nM
[27] = target: Serine/threonine-protein kinase Sgk2 (Homo sapiens) (UniProt Q9HBY8); conditions: Compound concentration 100.0 nM
[28] = target: Serine/threonine-protein kinase PLK4 (Homo sapiens) (UniProt O00444); conditions: Compound concentration 100.0 nM
[29] = target: Mitogen-activated protein kinase kinase kinase kinase 3 (Homo sapiens) (UniProt Q8IVH8); conditions: Compound concentration 100.0 nM
[30] = target: Bone morphogenetic protein receptor type-2 (Homo sapiens) (UniProt Q13873); conditions: Compound concentration 100.0 nM
[31] = target: Tyrosine-protein kinase Fes/Fps (Homo sapiens) (UniProt P07332); conditions: Compound concentration 100.0 nM
[32] = target: Dual specificity tyrosine-phosphorylation-regulated kinase 1B (Homo sapiens) (UniProt Q9Y463); conditions: Compound concentration 100.0 nM
[33] = tested on: Hepatocyte growth factor receptor (Homo sapiens), P08581 [Y1235D]; conditions: Compound concentration 100.0 nM
[34] = target: Tyrosine-protein kinase Tec (Homo sapiens) (UniProt P42680); conditions: Compound concentration 100.0 nM
[35] = target: 3-phosphoinositide-dependent protein kinase 1 (Homo sapiens) (UniProt O15530); conditions: Compound concentration 100.0 nM
[36] = target: Mitogen-activated protein kinase 7 (Homo sapiens) (UniProt Q13164); conditions: Compound concentration 100.0 nM
[37] = target: Serine/threonine-protein kinase PRP4 homolog (Homo sapiens) (UniProt Q13523); conditions: Compound concentration 100.0 nM
[38] = tested on: Phosphatidylinositol 4,5-bisphosphate 3-kinase catalytic subunit alpha isoform (Homo sapiens), P42336 [H1047L]; conditions: Compound concentration 100.0 nM
[39] = target: Receptor-interacting serine/threonine-protein kinase 2 (Homo sapiens) (UniProt O43353); conditions: Compound concentration 100.0 nM
[40] = target: Myosin-IIIa (Homo sapiens) (UniProt Q8NEV4); conditions: Compound concentration 100.0 nM
[41] = tested on: Phosphatidylinositol 4,5-bisphosphate 3-kinase catalytic subunit alpha isoform (Homo sapiens), P42336 [E542K]; conditions: Compound concentration 100.0 nM
[42] = target: Serine/threonine-protein kinase DCLK1 (Homo sapiens) (UniProt O15075); conditions: Compound concentration 100.0 nM
[43] = target: NUAK family SNF1-like kinase 2 (Homo sapiens) (UniProt Q9H093); conditions: Compound concentration 100.0 nM
[44] = target: NT-3 growth factor receptor (Homo sapiens) (UniProt Q16288); conditions: Compound concentration 100.0 nM

Chain of Serine/threonine-protein kinase Sgk2 (Homo sapiens) (Q9HBY8 whole entry): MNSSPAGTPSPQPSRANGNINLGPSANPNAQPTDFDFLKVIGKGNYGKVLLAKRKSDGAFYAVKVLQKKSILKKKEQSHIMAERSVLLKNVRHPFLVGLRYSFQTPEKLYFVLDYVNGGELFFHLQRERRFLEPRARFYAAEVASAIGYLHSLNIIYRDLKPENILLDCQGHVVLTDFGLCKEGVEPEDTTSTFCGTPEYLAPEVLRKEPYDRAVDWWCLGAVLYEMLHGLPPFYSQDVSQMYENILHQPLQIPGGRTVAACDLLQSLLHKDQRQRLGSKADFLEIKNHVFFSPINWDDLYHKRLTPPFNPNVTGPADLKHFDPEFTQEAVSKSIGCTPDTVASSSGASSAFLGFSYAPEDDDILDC
Chain of Ephrin type-B receptor 1 (Homo sapiens) (P54762 whole entry): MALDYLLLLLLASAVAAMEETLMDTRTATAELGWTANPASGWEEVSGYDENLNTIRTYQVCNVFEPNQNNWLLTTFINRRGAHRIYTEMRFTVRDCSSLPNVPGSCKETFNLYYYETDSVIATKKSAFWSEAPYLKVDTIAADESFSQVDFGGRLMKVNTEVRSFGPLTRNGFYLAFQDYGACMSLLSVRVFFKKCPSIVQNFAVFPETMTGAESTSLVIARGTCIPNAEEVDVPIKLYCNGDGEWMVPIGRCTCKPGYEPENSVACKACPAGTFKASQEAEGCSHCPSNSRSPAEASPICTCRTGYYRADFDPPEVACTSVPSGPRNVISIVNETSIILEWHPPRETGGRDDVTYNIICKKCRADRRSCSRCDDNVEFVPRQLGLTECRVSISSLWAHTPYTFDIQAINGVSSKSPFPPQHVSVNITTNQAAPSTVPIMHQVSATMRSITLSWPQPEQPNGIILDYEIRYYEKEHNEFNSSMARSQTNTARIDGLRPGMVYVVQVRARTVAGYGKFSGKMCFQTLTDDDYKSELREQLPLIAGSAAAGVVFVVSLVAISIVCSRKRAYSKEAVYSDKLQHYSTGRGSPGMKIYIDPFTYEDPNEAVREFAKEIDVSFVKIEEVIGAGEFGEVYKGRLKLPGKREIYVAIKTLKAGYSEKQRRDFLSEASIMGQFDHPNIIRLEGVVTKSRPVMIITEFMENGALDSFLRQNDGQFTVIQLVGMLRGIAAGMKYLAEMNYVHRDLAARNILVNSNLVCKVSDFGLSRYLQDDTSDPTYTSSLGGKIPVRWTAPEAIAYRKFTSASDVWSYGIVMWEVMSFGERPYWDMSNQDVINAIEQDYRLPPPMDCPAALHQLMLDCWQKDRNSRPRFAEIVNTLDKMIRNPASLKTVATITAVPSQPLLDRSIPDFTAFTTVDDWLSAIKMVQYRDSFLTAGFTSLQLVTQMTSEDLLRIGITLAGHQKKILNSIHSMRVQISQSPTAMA
Chain of Serine/threonine-protein kinase PRP4 homolog (Homo sapiens) (Q13523 whole entry, canonical isoform): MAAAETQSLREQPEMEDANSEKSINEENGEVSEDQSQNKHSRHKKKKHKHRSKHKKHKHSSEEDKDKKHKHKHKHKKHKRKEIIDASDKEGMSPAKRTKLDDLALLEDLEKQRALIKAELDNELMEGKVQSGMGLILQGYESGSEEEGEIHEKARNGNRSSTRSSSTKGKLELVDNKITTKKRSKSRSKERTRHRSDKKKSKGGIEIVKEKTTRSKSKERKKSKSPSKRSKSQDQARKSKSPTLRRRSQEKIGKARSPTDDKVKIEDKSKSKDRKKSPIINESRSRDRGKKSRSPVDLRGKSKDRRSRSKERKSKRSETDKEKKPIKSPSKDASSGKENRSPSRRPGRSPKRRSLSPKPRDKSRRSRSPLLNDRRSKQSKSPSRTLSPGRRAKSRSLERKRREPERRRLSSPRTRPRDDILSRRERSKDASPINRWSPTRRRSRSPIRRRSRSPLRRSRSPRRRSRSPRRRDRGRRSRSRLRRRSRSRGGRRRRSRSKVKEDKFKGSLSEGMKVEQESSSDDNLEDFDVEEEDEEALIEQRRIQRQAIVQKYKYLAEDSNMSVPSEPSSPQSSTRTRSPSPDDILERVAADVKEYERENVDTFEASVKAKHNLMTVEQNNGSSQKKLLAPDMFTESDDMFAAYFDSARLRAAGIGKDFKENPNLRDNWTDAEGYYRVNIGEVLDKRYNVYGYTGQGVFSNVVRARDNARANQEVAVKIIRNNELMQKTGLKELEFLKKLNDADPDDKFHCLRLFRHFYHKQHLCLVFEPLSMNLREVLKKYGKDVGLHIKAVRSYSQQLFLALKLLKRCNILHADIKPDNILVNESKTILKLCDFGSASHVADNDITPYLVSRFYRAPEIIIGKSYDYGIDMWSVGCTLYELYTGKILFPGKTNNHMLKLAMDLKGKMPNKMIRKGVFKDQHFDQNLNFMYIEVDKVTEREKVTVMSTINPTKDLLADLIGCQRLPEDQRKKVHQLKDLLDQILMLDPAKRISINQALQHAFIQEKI
Chain of Eukaryotic translation initiation factor 2-alpha kinase 1 (Homo sapiens) (Q9BQI3 whole entry): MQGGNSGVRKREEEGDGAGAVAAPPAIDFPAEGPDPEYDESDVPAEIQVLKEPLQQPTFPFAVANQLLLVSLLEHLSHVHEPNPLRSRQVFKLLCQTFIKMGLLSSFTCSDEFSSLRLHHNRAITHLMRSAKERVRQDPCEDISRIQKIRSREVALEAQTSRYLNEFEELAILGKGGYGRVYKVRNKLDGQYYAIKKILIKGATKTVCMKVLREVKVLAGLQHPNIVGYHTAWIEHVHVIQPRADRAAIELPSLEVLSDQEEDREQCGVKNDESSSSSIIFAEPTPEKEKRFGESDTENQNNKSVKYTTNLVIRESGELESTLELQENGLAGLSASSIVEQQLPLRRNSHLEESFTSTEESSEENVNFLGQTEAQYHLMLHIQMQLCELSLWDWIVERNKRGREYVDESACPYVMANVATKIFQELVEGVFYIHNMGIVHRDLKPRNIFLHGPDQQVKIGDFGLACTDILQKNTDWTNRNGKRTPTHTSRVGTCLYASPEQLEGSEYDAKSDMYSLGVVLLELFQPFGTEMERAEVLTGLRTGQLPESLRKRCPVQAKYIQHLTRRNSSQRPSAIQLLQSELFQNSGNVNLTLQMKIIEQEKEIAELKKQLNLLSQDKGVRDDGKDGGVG
Chain of Serine/threonine-protein kinase Nek9 (Homo sapiens) (Q8TD19 whole entry): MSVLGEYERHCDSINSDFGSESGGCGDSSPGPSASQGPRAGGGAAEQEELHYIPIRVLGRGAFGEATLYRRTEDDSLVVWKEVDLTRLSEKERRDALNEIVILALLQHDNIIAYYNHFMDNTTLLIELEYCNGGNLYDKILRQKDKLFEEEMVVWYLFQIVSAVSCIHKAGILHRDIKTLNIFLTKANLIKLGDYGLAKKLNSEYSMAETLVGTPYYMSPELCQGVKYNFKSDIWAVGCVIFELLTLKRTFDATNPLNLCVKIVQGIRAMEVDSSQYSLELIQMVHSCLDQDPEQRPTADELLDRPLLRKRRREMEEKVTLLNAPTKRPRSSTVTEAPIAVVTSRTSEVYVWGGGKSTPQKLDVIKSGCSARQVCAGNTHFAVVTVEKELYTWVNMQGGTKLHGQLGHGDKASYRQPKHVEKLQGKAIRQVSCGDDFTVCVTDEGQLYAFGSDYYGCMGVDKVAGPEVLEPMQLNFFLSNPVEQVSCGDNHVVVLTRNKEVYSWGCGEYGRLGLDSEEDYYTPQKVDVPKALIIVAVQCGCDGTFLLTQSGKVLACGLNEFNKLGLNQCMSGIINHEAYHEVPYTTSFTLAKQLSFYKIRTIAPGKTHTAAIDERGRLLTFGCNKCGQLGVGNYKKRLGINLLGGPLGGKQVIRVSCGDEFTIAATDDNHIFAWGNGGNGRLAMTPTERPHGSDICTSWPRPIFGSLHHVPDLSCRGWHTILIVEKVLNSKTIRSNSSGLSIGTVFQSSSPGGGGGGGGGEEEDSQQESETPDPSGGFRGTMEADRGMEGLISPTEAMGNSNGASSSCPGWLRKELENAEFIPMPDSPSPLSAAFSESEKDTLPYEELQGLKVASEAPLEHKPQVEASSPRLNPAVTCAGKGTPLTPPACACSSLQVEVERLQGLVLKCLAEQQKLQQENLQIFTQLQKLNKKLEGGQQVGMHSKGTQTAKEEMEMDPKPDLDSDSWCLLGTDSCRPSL
Chain of Tyrosine-protein kinase Tec (Homo sapiens) (P42680 whole entry): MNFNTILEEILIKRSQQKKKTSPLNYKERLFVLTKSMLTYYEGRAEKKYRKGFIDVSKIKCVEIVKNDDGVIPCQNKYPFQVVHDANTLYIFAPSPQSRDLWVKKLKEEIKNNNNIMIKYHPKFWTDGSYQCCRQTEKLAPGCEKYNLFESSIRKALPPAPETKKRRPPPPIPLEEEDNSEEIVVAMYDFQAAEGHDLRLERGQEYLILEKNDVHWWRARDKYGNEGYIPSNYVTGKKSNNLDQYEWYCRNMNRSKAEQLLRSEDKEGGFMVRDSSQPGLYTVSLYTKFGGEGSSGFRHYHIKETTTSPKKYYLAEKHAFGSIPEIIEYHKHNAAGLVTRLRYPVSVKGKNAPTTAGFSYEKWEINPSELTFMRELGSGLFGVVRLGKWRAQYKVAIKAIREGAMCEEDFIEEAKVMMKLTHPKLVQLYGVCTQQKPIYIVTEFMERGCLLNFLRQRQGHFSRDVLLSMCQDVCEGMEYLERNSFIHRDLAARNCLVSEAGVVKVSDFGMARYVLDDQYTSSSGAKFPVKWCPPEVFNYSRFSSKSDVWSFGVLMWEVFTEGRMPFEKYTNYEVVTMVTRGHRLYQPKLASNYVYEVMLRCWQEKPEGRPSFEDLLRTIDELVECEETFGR
Chain of D(2) dopamine receptor (Homo sapiens) (P14416 whole entry): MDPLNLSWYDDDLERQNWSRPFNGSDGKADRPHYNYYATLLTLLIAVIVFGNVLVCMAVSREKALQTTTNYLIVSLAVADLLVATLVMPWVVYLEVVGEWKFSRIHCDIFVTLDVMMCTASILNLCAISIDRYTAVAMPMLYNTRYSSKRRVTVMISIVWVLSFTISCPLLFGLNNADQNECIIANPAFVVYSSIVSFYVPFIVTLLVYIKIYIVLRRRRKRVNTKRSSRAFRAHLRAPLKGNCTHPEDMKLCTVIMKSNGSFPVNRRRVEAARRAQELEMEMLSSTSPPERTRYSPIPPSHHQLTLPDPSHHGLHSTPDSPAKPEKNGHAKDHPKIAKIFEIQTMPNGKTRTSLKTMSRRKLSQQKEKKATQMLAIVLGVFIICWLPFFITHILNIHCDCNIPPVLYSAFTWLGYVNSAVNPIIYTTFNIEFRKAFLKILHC

SMILES: Cn1cc(Cl)c2c(Oc3c(F)cc(Nc4cc(Cl)nc(N)n4)cc3F)ccnc21 [BAY-4900]
- residual activity [1]: 100%
- residual activity [2]: 96%
- residual activity [3]: 100%
- residual activity [4]: 83%
- residual activity [5]: 82%
- residual activity [6]: 96%
- residual activity [7]: 100%
- residual activity [8]: 100%
- residual activity [9]: 96%
- residual activity [10]: 100%
- inhibition [11]: -4.88%
- residual activity [12]: 100%
- residual activity [13]: 100%
- residual activity [14]: 91%
- residual activity [15]: 85%
- residual activity [16]: 100%
- residual activity [17]: 100%
- residual activity [18]: 100%
- residual activity [19]: 83%
- residual activity [20]: 82%
- residual activity [21]: 89%
- residual activity [22]: 86%
- residual activity [23]: 76%
- inhibition [24]: 1.05%
- residual activity [25]: 92%
- residual activity [26]: 100%
- residual activity [27]: 86%
- residual activity [28]: 83%
- residual activity [29]: 100%
- residual activity [30]: 100%
- residual activity [31]: 100%
- residual activity [32]: 82%
- residual activity [33]: 91%
- residual activity [34]: 100%
- residual activity [35]: 61%
- residual activity [36]: 100%
- residual activity [37]: 81%
- residual activity [38]: 83%
- residual activity [39]: 83%
- residual activity [40]: 100%
- residual activity [41]: 89%
- residual activity [42]: 85%
- residual activity [43]: 85%
- residual activity [44]: 76%

SMILES: Cc1c[nH]c2nccc(Oc3c(F)cc(Nc4cc(Cl)nc(N)n4)cc3F)c12 [BAY-549]
- residual activity [1]: 77%
- residual activity [2]: 83%
- residual activity [3]: 70%
- residual activity [4]: 85%
- residual activity [5]: 68%
- residual activity [6]: 100%
- residual activity [7]: 100%
- residual activity [8]: 96%
- residual activity [9]: 86%
- residual activity [10]: 100%
- inhibition [11]: -0.34%
- residual activity [12]: 100%
- residual activity [13]: 100%
- residual activity [14]: 83%
- residual activity [15]: 75%
- residual activity [16]: 80%
- residual activity [17]: 100%
- residual activity [18]: 94%
- residual activity [19]: 85%
- residual activity [20]: 88%
- residual activity [21]: 86%
- residual activity [22]: 94%
- residual activity [23]: 0.6%
- inhibition [24]: -4.56%
- residual activity [25]: 82%
- residual activity [26]: 100%
- residual activity [27]: 69%
- residual activity [28]: 82%
- residual activity [29]: 91%
- residual activity [30]: 95%
- residual activity [31]: 100%
- residual activity [32]: 100%
- residual activity [33]: 88%
- residual activity [34]: 86%
- residual activity [35]: 100%
- residual activity [36]: 82%
- residual activity [37]: 89%
- residual activity [38]: 81%
- residual activity [39]: 92%
- residual activity [40]: 95%
- residual activity [41]: 85%
- residual activity [42]: 65%
- residual activity [43]: 85%
- residual activity [44]: 86%
